Key:
[1] = tested on: anti-CD20 CAR expression in primary T cells; assay: Induction of anti-CD20 CAR expression in transduced primary T cells, flow cytometry; format: cell-based, human; conditions: 0-250 nM 4-OHT, 40 h
Experimental: Lentiviral particles encoding for the different drug-inducible cassettes were manufactured as described in example 1.2. Drug-inducible T cells were generated as described in example 1.3. 1E4 LNGFR positive drug-inducible T cells were seeded in 100 μL TexMACS medium (Miltenyi Biotec) supplemented with IL-7 (Miltenyi Biotec) and IL-15 (Miltenyi Biotec) in a 96-round bottom well plate. Anti-CD20 CAR expression was induced by the addition of different concentrations of 4-OHT (0-250 nM, Sigma-Aldrich) in 100 μL μL TexMACS medium (Miltenyi Biotec) supplemented with IL-7 (Miltenyi Biotec) and IL-15 (Miltenyi Biotec) to each well. Untransduced T cells constitute the negative control. T cells that 10 constitutively express an anti-CD20 CAR (“direct CAR”) represent the positive control. Cells were incubated at 37° C. and 5% CO2. T cells were analyzed 40h post induction for anti-CD20 CAR expression by flow cytometry using anti-CD20 CAR detection reagent-PE. […]
Staining was performed for 10 min at 4° C. followed by two successive washing steps with 200 L PEB (300 g, 5 min). […] Frequency of anti-CD20 CAR+inducible T cells (left graph) and mean fluorescence intensity (MFI) of anti-CD20 CAR expression (right graph) was determined and normalized to the expression of the transduction marker LNGFR. […]

[2] = cited from earlier work

Molecule | anti-CD20 CAR surface expression (MFI) versus drug dose [1] | induction ratios of anti-CD20 CAR expression versus drug dose [1] | steady-state plasma levels ([2]; after 80 days of daily dosing) | average peak plasma concentration ([2]; single oral dose of 20 mg)
4-hydroxytamoxifen [4-OHT] | steadily increased with the drug dose | higher drug doses resulting in greater induction ratios |  | 
CC/C(=C(\c1ccccc1)c1ccc(OCCN(C)C)cc1)c1ccccc1 [tamoxifen, 2-(4-((1Z)-1,2-diphenyl-1-butenyl)phenoxy)-N,N-dimethylethanamine] |  |  | 71 to 183 ng/mL | 40 ng/mL
